Results: article PMC4503722, “Novel Phenotypic Outcomes Identified for a Public Collection of Approved Drugs from a Publicly Accessible Panel of Assays” (PLoS ONE, 2015)
Where two headings read alike, the source gives them in different places.

Experiments:
[1] = test system: endothelial tube formation in co-cultures of ECFCs and ADSCs treated with VEGF; assay: cells; format: cell-based, human; conditions: for IC50: read-out: VEGF_ADSC\ECFC Angio CD31 TubeArea summarized IC50
HeLa cells = assay: cells; format: cell-based;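 on Hela CellCycMod PI 4N summarized IC50: value tracks stimulation of 4N DNA content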
[2] = test system: ECFC/ADSC co-culture cell nuclei number; conditions: for IC50: read-out: VEGF_ADSC\ECFC Angio Hoechst NucArea summarized IC50
[3] = assay number 14, 2N, read-out: Hela CellCycMod PI 2N summarized IC50
[4] = assay number 16, 4N, read-out: Hela CellCycMod PI 4N summarized IC50
[5] = assay number 17, MI, read-out: Hela CellCycMod PI MI summarized IC50
[6] = assay number 18, cell number, read-out: Hela CellCycMod PI Cell Number summarized IC50
[7] = assay number 15, S phase, read-out: Hela CellCycMod PI S Phase summarized IC50

Structure (SMILES)	VEGF_ADSC\ECFC Angio CD31 TubeArea IC50/EC50 [1]	Hela CellCycMod PI 2N IC50/EC50 (HeLa cells; assay number 14, 2N)	Hela CellCycMod PI 4N IC50/EC50 (HeLa cells; assay number 16, 4N)	Hela CellCycMod PI MI IC50/EC50 (HeLa cells; assay number 17, MI)	Hela CellCycMod PI Cell Number IC50/EC50 (HeLa cells; assay number 18, cell number)	VEGF_ADSC\ECFC Angio Hoechst NucArea IC50/EC50 [2]	Hela CellCycMod PI S Phase IC50/EC50 (HeLa cells; assay number 15, S phase)	other results
O=C(O)CCCc1ccc(N(CCCl)CCCl)cc1 [NCGC00015199-20]	–	–	–	–	–	–	–	IC50/EC50, VEGF_ADSC\ECFC Angio CD31 TubeArea (assay number 2) [1]: 1.2446 µM; IC50/EC50, Hela CellCycMod PI 2N (assay number 14) (HeLa cells; 2N): > 10 µM; IC50/EC50, Hela CellCycMod PI 4N (assay number 16) (HeLa cells; 4N): > 10 µM; IC50/EC50, Hela CellCycMod PI Cell Number (assay number 18) (HeLa cells): > 10 µM; IC50/EC50, Hela CellCycMod PI MI (assay number 17) (HeLa cells; MI): > 10 µM; IC50/EC50, Hela CellCycMod PI S Phase (assay number 15) (HeLa cells): 2.1921 µM; IC50/EC50, VEGF_ADSC\ECFC Angio Hoechst NucArea (assay number 3) [2]: > 10 µM
COc1ccc(Cc2nccc3cc(OC)c(OC)cc23)cc1OC [NCGC00015810-12]	–	–	–	–	–	–	–	IC50 [1]: 7.8 µM; IC50 (HeLa cells; [3]): > 10 µM; IC50 (HeLa cells; [4]): > 10 µM; IC50 (HeLa cells; [5]): > 10 µM; IC50 (HeLa cells; [6]): > 10 µM; IC50 [2]: > 10 µM
COc1ccc2cc3[n+](cc2c1OC)CCc1cc2c(cc1-3)OCO2 [NCGC00016526-07]	2.6815 µM	> 10 µM	> 10 µM	> 10 µM	> 10 µM	> 10 µM	–	–
O=c1[nH]c(=O)n([C@H]2C[C@H](O)[C@@H](CO)O2)cc1Br [NCGC00090770-09]	3.8464 µM	> 10 µM	> 10 µM	> 10 µM	> 10 µM	> 10 µM	> 10 µM	–
CC(=O)Oc1ccccc1C(=O)Nc1ncc([N+](=O)[O-])s1 [NCGC00090774-05]	2.0612 µM	> 10 µM	> 10 µM	> 10 µM	> 10 µM	> 10 µM	> 10 µM	–
O=C1c2c(O)cccc2Cc2cccc(O)c21 [NCGC00091330-07]	–	–	–	–	–	–	–	IC50 [1]: 0.604 µM; IC50 (HeLa cells; [3]): > 10 µM; IC50 (HeLa cells; [7]): > 10 µM; IC50 (HeLa cells; [4]): > 10 µM; IC50 (HeLa cells; [5]): > 10 µM; IC50 (HeLa cells; [6]): > 10 µM; IC50 [2]: > 10 µM
CN(C)/N=N/c1nc[nH]c1C(N)=O [NCGC00091861-07]	–	–	–	–	–	–	–	IC50/EC50, VEGF_ADSC\ECFC Angio CD31 TubeArea (assay number 2) [1]: 4.5862 µM; IC50/EC50, Hela CellCycMod PI 2N (assay number 14) (HeLa cells; 2N): > 10 µM; IC50/EC50, Hela CellCycMod PI 4N (assay number 16) (HeLa cells; 4N): > 10 µM; IC50/EC50, Hela CellCycMod PI Cell Number (assay number 18) (HeLa cells): > 10 µM; IC50/EC50, Hela CellCycMod PI MI (assay number 17) (HeLa cells; MI): > 10 µM; IC50/EC50, Hela CellCycMod PI S Phase (assay number 15) (HeLa cells): > 10 µM; IC50/EC50, VEGF_ADSC\ECFC Angio Hoechst NucArea (assay number 3) [2]: > 10 µM
O=C(CCBr)N1CCN(C(=O)CCBr)CC1 [NCGC00095048-06]	1.3723 µM	> 10 µM	> 10 µM	> 10 µM	> 10 µM	> 10 µM	> 10 µM	–
C1CN(P2(N3CC3)=NP(N3CC3)(N3CC3)=NP(N3CC3)(N3CC3)=N2)CCO1 (stereo not drawn) [NCGC00160420-02]	3.6152 µM	> 10 µM	> 10 µM	> 10 µM	> 10 µM	> 10 µM	> 10 µM	–
COc1ccc(/C=C/C(=O)c2ccc(OC)cc2OC)cc1 [NCGC00160442-03]	6.6604 µM	> 10 µM	> 10 µM	> 10 µM	0.7082 µM	> 10 µM	–	–
COCCOC(=O)C1=C(C)NC(C)=C(C(=O)OC/C=C/c2ccccc2)C1c1cccc([N+](=O)[O-])c1 (stereo not drawn) [NCGC00162150-04]	6.4204 µM	> 10 µM	> 10 µM	> 10 µM	> 10 µM	> 10 µM	> 10 µM	–
CCCCCCCCCCCC(=O)[O][Sn]([CH2]CCC)([CH2]CCC)[O]C(=O)CCCCCCCCCCC [NCGC00166115-02]	–	–	–	–	–	–	–	IC50 [1]: 2.01 µM; IC50 (HeLa cells; [3]): > 10 µM; IC50 (HeLa cells; [7]): > 10 µM; IC50 (HeLa cells; [4]): > 10 µM; IC50 (HeLa cells; [5]): > 10 µM; IC50 (HeLa cells; [6]): > 10 µM; IC50 [2]: > 10 µM
C[C@]12CC[C@@H]3c4ccc(O)cc4CC[C@H]3[C@@H]1CC[C@@H]2OC(=O)CCC1CCCC1 [NCGC00166134-02]	6.3667 µM	> 10 µM	> 10 µM	> 10 µM	> 10 µM	> 10 µM	> 10 µM	–
O=C1CC[C@H](C(=O)N2CCCCC2)N1 [NCGC00182992-01]	> 10 µM	–	–	–	–	> 10 µM	–	–
CC(=O)c1ccc(OCC(=O)N2CCCCC2)cc1 [NCGC00183022-01]	> 10 µM	–	–	–	–	> 10 µM	–	–
CCOC(=O)NC(C)(C)Cc1ccc(Cl)cc1 [NCGC00183835-01]	–	–	–	–	–	–	–	IC50 [1]: > 10 µM; IC50 [2]: > 10 µM
O=C1NC2CCCCN2C12CCN(CCCN1c3ccccc3CCc3ccc(Cl)cc31)CC2 (stereo not drawn) [NCGC00183853-01]	> 10 µM	–	–	–	–	> 10 µM	–	–
